According to patent US20180206491A1, “SUBSTITUTED CYCLIC ARYL AND HETEROARYL CARBOXYLIC ACID HYDRAZIDES OR SALTS THEREOF AND USE THEREOF TO INCREASE STRESS TOLERANCE IN PLANTS” (Bayer CropScience Aktiengesellschaft, priority 2015, published 2018):

Experiments:
Conditions in all cases: spray application
[1] = tested on: Brassica napus; assay: In vivo analyses Part B: drought stress, appearance versus stressed control plants in categories; parameters: key: 0: no positive effect; +: slight positive effect; ++: clear positive effect; +++: strong positive effect
Description: (§1) Seeds of monocotyledonous and dicotyledonous crop plants were sown in sandy loam in plastic pots, covered with soil or sand and cultivated in a greenhouse under good growth conditions. The test plants are treated at the early leaf stage (BBCH10-BBCH13). To assure uniform water supply before commencement of stress, the potted plants were supplied with water by dam irrigation prior to substance application. The inventive compounds were first formulated as wettable powders (WP) or dissolved in a solvent mixture. The further dilution was effected with water supplemented with 0.2% wetting agent (e.g. agrotin). The finished spray liquor was sprayed onto the green parts of the plant at an equivalent water application rate of 600 l/ha. Substance application was followed immediately by stress treatment of the plants. Drought stress was induced by gradual drying out under the following conditions: “Day”: 14 hours with illumination at ˜26-30° C. “Night”: 10 hours without illumination at ˜18-20° C. The duration of the respective stress phases was guided mainly by the condition of the stressed control plants. It was ended (by re-irrigating and transfer to a greenhouse with good growth conditions) as soon as irreversible damage was observed on the stressed control plants. The end of the stress phase was followed by an about 4-7-day recovery phase, during which the plants were once again kept under good growth conditions in a greenhouse. The duration of the recovery phase was guided mainly by when the trial plants had attained a state which enabled visual scoring of potential effects, and was therefore variable. Once this juncture had been reached, the appearance of the plants treated with test substances was recorded in comparison to the stressed control plants by the following categories: • 0 no positive effect • + slight positive effect • ++ clear positive effect • +++ strong positive effect In order to rule out any influence on the effects observed by any fungicidal or insecticidal action of the test compounds, it was additionally ensured that the tests proceeded without fungal infection or insect infestation. The values reported in tables B-1 and B-2 below are mean values of the results from at least three repeats. Effects of selected compounds of the general formula (I) under drought stress according to the following tables B-1 and B-2: […]

[2] = tested on: Triticum aestivum; assay: as above; parameters: key: 0: no positive effect; +: slight positive effect; ++: clear positive effect; +++: strong positive effect
Description: as §1

[3] = tested on: Brassica napus; assay: In vivo analyses: drought stress, visual scoring of damage, efficacy EF
Description: (§2) Seeds of monocotyledonous and dicotyledonous crop plants were sown in sandy loam in wood-fiber or plastic pots, covered with soil or sand and cultivated in a greenhouse under good growth conditions. The trial plants were treated at the early leaf stage (BBCH10-BBCH13). To assure uniform water supply before commencement of stress, the potted plants were supplied with water by dam irrigation prior to substance application. The inventive compounds formulated in the form of wettable powders (WP) were sprayed onto the green parts of the plants as an aqueous suspension at an equivalent water application rate of 600 I/ha with addition of 0.2% wetting agent (e.g. agrotin). Substance application was followed immediately by stress treatment of the plants. For this purpose, the wood-fiber pots were transferred in plastic inserts in order to prevent them from subsequently drying out too quickly. Drought stress was induced by gradual drying out under the following conditions: “Day”: 14 hours with illumination at ˜26-30° C. “Night”: 10 hours without illumination at ˜18-20° C. The duration of the respective stress phases was guided mainly by the condition of the stressed control plants. It was ended (by re-irrigating and transfer to a greenhouse with good growth conditions) as soon as irreversible damage was observed on the stressed control plants. The end of the stress phase was followed by an about 4-7-day recovery phase, during which the plants were once again kept under good growth conditions in a greenhouse. The duration of the recovery phase was guided mainly by when the trial plants had attained a state which enabled visual scoring of potential effects, and is therefore variable. Once this juncture was reached, the intensities of damage were scored visually in comparison to untreated, unstressed controls of the same age. The damage intensity was at first assessed in percent. These values were then used to calculate the efficacy of the test compounds by the following formula: [formula] EF: Efficacy DIs: Damage intensity of the stressed control plants DIt: Damage intensity of the stressed plants treated with test compound The values reported in tables A-1 to A-3 below are mean values from at least one trial with at least two repeats, showing the effects of selected compounds of the general formula (I) under drought stress on various crop plants.

[4] = tested on: Triticum aestivum; assay: as above
Description: as §2

[5] = tested on: Zea mays; assay: as above
Description: as §2

Structure (SMILES): O=C(c1cnccc1C(F)(F)F)N(Cc1ncc(C(F)(F)F)cc1Cl)N1CCCC1 [B2-36]
- Effect (BRSNS) ([1]; 250 g/ha): +
- Effect (TRZAS) ([2]; 25 g/ha): +

Structure (SMILES): CN1CCN(N(Cc2ccccc2Cl)C(=O)c2cnccc2C(F)(F)F)CC1 [B6-1]
- Effect (TRZAS) ([2]; 250 g/ha): +

Structure (SMILES): N#Cc1ccccc1CN(C(=O)c1cnccc1C(F)(F)F)N1CCOCC1 [B5-61, N-(2-Cyanobenzyl)-N-(morpholin-4-yl)-4-(trifluoromethyl)-nicotinamide]
- Effect (BRSNS) ([1]; 250 g/ha): +
- Effect (TRZAS) ([2]; 250 g/ha): +

Structure (SMILES): O=C(c1ccccc1C(F)(F)F)N(Cc1ccc2ccccc2n1)N1CCCC1 [A2-122]
- EF [%] (BRSNS) ([3]; 250 g/ha): >5%
- EF [%] (TRZAS) ([4]; 250 g/ha): >5%
- EF [%] (ZEAMX) ([5]; 250 g/ha): >5%

Structure (SMILES): COC1CCCN(N(Cc2ccccn2)C(=O)c2ccccc2C(F)(F)F)C1 (stereo not shown) [A13-21]
- Effect (TRZAS) ([2]; 250 g/ha): +

Structure (SMILES): CN1CCN(N(Cc2ccccn2)C(=O)c2cnccc2C(F)(F)F)CC1 [B6-21]
- Effect (BRSNS) ([1]; 250 g/ha): +
- Effect (TRZAS) ([2]; 250 g/ha): +

Structure (SMILES): O=C(c1cnccc1C(F)(F)F)N(Cc1ccccn1)N1CCOCC1 [B5-21]
- Effect (BRSNS) ([1]; 250 g/ha): +

Structure (SMILES): COc1c(C)cnc(CN(C(=O)c2ccc(F)cc2C(F)(F)F)N2CCCC2)c1C [A6-37]
- EF [%] (BRSNS) ([3]; 2.5 g/ha): >5%

Structure (SMILES): COC1CCCN(N(Cc2nccc(Cl)c2Cl)C(=O)c2ccccc2C(F)(F)F)C1 (stereo not shown) [A13-40]
- Effect (TRZAS) ([2]; 250 g/ha): +

Structure (SMILES): COC1CCCN(N(Cc2ccccn2)C(=O)c2cnccc2C(F)(F)F)C1 (stereo not shown) [B7-21]
- Effect (BRSNS) ([1]; 25 g/ha): +

Structure (SMILES): COC1CCCN(N(Cc2ccccc2Cl)C(=O)c2ccccc2C(F)(F)F)C1 (stereo not shown) [A13-1]
- Effect (BRSNS) ([1]; 250 g/ha): +
- Effect (TRZAS) ([2]; 250 g/ha): +

Structure (SMILES): O=C(c1ccc(Cl)cc1Cl)N(Cc1ccc(F)cc1F)N1CCCC1 [A8-15]
- Effect (TRZAS) ([2]; 25 g/ha): +

Structure (SMILES): N#Cc1ccccc1CN(C(=O)c1cccc2nnsc12)N1CCCC1 [A14-61]
- Effect (BRSNS) ([1]; 250 g/ha): +
- Effect (TRZAS) ([2]; 25 g/ha): +

Structure (SMILES): COc1c(C)cnc(CN(C(=O)c2ccccc2C(F)(F)F)N2CCCC2)c1C [A2-37]
- EF [%] (TRZAS) ([4]; 250 g/ha): >5%
- EF [%] (ZEAMX) ([5]; 25 g/ha): >5%

Structure (SMILES): O=C(c1cnccc1C(F)(F)F)N(Cc1ccc(Cl)nc1)N1CCCC1 [B2-94]
- Effect (TRZAS) ([2]; 25 g/ha): +

Structure (SMILES): O=C(c1ccccc1C(F)(F)F)N(Cc1ccc(F)cc1F)N1CCCC1 [A2-15]
- Effect (BRSNS) ([1]; 250 g/ha): +
- Effect (TRZAS) ([2]; 250 g/ha): +

Structure (SMILES): N#Cc1ccccc1CN(C(=O)c1ccnnc1)N1CCCC1 [F1-61]
- Effect (BRSNS) ([1]; 25 g/ha): +
- Effect (TRZAS) ([2]; 100 g/ha): +

Structure (SMILES): COC1CCCN(N(Cc2cccc(C#N)c2)C(=O)c2ccncc2)C1 (stereo not shown) [C8-62]
- EF [%] (BRSNS) ([3]; 2.5 g/ha): >5%
- EF [%] (ZEAMX) ([5]; 250 g/ha): >5%

Structure (SMILES): O=C(c1ccc(F)cc1C(F)(F)F)N(Cc1ccccc1Cl)N1CCCC1 [A6-1]
- EF [%] (TRZAS) ([4]; 25 g/ha): >5%
- EF [%] (ZEAMX) ([5]; 250 g/ha): >5%

Structure (SMILES): CN1CCN(N(Cc2nccc(Cl)c2Cl)C(=O)c2ccccc2C(F)(F)F)CC1 [A12-40]
- Effect (BRSNS) ([1]; 250 g/ha): +
- Effect (TRZAS) ([2]; 25 g/ha): +

Structure (SMILES): COC1CCCN(N(Cc2ccccc2C#N)C(=O)c2cnccc2C(F)(F)F)C1 (stereo not shown) [B7-61]
- Effect (TRZAS) ([2]; 250 g/ha): +

Structure (SMILES): COC1CCCN(N(Cc2ccccc2Cl)C(=O)c2cnccc2C(F)(F)F)C1 (stereo not shown) [B7-1]
- Effect (TRZAS) ([2]; 25 g/ha): ++

Structure (SMILES): CN1CCN(N(Cc2ccccc2C#N)C(=O)c2ccncc2)CC1 [C6-61]
- EF [%] (BRSNS) ([3]; 2.5 g/ha): >5%
- EF [%] (TRZAS) ([4]; 25 g/ha): >5%

Structure (SMILES): O=C(c1cnccc1C(F)(F)F)N(Cc1ccccc1F)N1CCOCC1 [B5-11]
- Effect (BRSNS) ([1]; 250 g/ha): +

Structure (SMILES): O=C(c1ccccc1Cl)N(Cc1ccc(F)cc1F)N1CCCC1 [A7-15]
- Effect (BRSNS) ([1]; 250 g/ha): +
- Effect (TRZAS) ([2]; 25 g/ha): +

Structure (SMILES): COc1ccccc1C(=O)N(Cc1ccc(F)cc1F)N1CCCC1 [A9-15]
- Effect (TRZAS) ([2]; 25 g/ha): +

Structure (SMILES): CC(c1ccc(F)cc1)N(C(=O)c1cnccc1C(F)(F)F)N1CCCC1 (stereo not shown) [B2-159]
- Effect (BRSNS) ([1]; 250 g/ha): +
- Effect (TRZAS) ([2]; 250 g/ha): +

Structure (SMILES): N#Cc1ccccc1CN(C(=O)c1cnccc1C(F)(F)F)N1CCCC1 [B2-61, N-(2-Cyanobenzyl)-N-(pyrrolidin-1-yl)-4-(trifluoromethyl)nicotinamide]
- EF [%] (BRSNS) ([3]; 25 g/ha): >5%
- EF [%] (TRZAS) ([4]; 25 g/ha): >5%
- EF [%] (ZEAMX) ([5]; 250 g/ha): >5%

Structure (SMILES): COC1CCCN(N(Cc2cccc(Cl)c2)C(=O)c2ccncc2)C1 (stereo not shown) [C8-2]
- EF [%] (BRSNS) ([3]; 250 g/ha): >5%

Structure (SMILES): CN1CCN(N(Cc2ccccc2Cl)C(=O)c2ccccc2C(F)(F)F)CC1 [A12-1]
- Effect (TRZAS) ([2]; 250 g/ha): +

Structure (SMILES): N#Cc1ccccc1CN(C(=O)c1ccncc1)N1CCCCC1 [C4-61]
- EF [%] (TRZAS) ([4]; 25 g/ha): >5%
- EF [%] (ZEAMX) ([5]; 250 g/ha): >5%

Structure (SMILES): COC1CCN(N(Cc2ccccn2)C(=O)c2ccccc2C(F)(F)F)C1 (stereo not shown) [A3-21, N-(3-Methoxypyrrolidin-1-yl)-N-(pyridin-2-ylmethyl)-2-(trifluoromethyl)benzamide]
- EF [%] (ZEAMX) ([5]; 250 g/ha): >5%

Structure (SMILES): CN1CCN(N(Cc2ccccn2)C(=O)c2ccccc2C(F)(F)F)CC1 [A12-21, N—(N-Methylpyridazin-1-yl)-N-(pyridin-2-ylmethyl)-2-(trifluoromethyl)-benzamide]
- Effect (BRSNS) ([1]; 250 g/ha): +

Structure (SMILES): CN1CCN(N(Cc2ccccc2C#N)C(=O)c2cnccc2C(F)(F)F)CC1 [B6-61]
- Effect (TRZAS) ([2]; 250 g/ha): +

Structure (SMILES): O=C(c1ccc(Cl)c(Cl)c1)N(Cc1cc(Cl)ccc1Cl)N1CCCC1 [A5-6]
- EF [%] (ZEAMX) ([5]; 250 g/ha): >5%

Structure (SMILES): COC1CCCN(N(Cc2ccccc2C#N)C(=O)c2ccccc2C(F)(F)F)C1 (stereo not shown) [A13-61]
- Effect (BRSNS) ([1]; 25 g/ha): +

Structure (SMILES): O=C(c1ccncc1)N(Cc1ccccc1Cl)N1CCOCC1 [C7-1]
- EF [%] (BRSNS) ([3]; 2.5 g/ha): >5%

Structure (SMILES): O=C(c1ccccc1Cl)N(Cc1ccc(Cl)nc1)N1CCCC1 [A7-94]
- Effect (TRZAS) ([2]; 25 g/ha): +

Structure (SMILES): O=C(c1cnccc1C(F)(F)F)N(Cc1ccc(F)cc1F)N1CCCC1 [B2-15]
- Effect (TRZAS) ([2]; 250 g/ha): +
